Test results from US8278309B2, “Synthetic mimetics of host defense and uses thereof” (priority 2008, dated 2012).
“Also recorded” adds a separate entry of the source. Counter-ions that a name gives are not always drawn.

Key:
[1] = tested on: Acinetobacter spp.; assay: MIC broth microdilution, Gram-negative clinical isolates; assay type: cell-based; conditions: 2-3 isolates/organism
Protocol: (§1) Compound A was evaluated in vitro in accordance with defined CLSI documents specific to the organisms (aerobic, anaerobic or yeast) tested in this study. Ampicillin, ceftazidime, cefuroxime, ciprofloxacin, linezolid, and vancomycin were tested alongside as comparator agents for aerobic bacteria; clindamycin and metronidazole were tested as comparators for anaerobes; fluconazole was tested as a comparator for yeast isolates. Stock solutions of Compound A were prepared in dimethyl sulfoxide (DMSO). Ampicillin, ceftazidime, cefuroxime, ciprofloxacin, linezolid, vancomycin, metronidazole, clindamycin, and fluconazole were prepared each according to its manufacturer's guideline.
(§2) Minimum inhibitory concentrations (MICs) in μg/ml were determined according to CLSI guideline M7-A7 by broth microdilution. All aerobes were tested using Mueller-Hinton broth medium with the exception of Streptococcus spp., which were tested using cation-adjusted Mueller-Hinton broth supplemented with 2-5% lysed horse blood.

[2] = tested on: Citrobacter freundi; assay: as above; assay type: cell-based; conditions: Citrobacter freundi; 2-3 isolates/organism; read-out: MIC
Protocol: as §1, §2

[3] = tested on: Citrobacter koseri; assay: as above; assay type: cell-based; conditions: 2-3 isolates/organism, read-out: MIC
Protocol: as §1, §2

[4] = tested on: Enterobacter cloacae; assay: as above; assay type: cell-based; conditions: 2-3 isolates/organism, read-out: MIC
Protocol: as §1, §2

[5] = tested on: Escherichia coli; assay: as above; assay type: cell-based; conditions: 2-3 isolates/organism, read-out: MIC
Protocol: as §1, §2

[6] = tested on: Haemophilus influenzae; assay: as above; assay type: cell-based; conditions: 2-3 isolates/organism, read-out: MIC
Protocol: as §1, §2

[7] = tested on: Klebsiella oxytoca; assay: as above; assay type: cell-based; conditions: 2-3 isolates/organism, read-out: MIC
Protocol: as §1, §2

[8] = tested on: Klebsiella pneumoniae; assay: as above; assay type: cell-based; conditions: 2-3 isolates/organism, read-out: MIC
Protocol: as §1, §2

[9] = tested on: Providencia stuartii; assay: as above; assay type: cell-based; conditions: 2-3 isolates/organism, read-out: MIC
Protocol: as §1, §2

[10] = tested on: S. aureus and coagulase-negative staphylococci; assay: MICs with Staphylococcus species with defined resistance phenotypes; assay type: cell-based; conditions: for MIC range: in µg/mL
Protocol: Evaluation of the susceptibility profiles of Compound A against selected isolates was carried out in vitro by broth microdilution methodology using Mueller-Hinton broth medium according to CLSI document M7-A7. CLSI interpretive breakpoints were applied where applicable as directed by CLSI document M100-S17.

[11] = tested on: S. aureus ATCC27660; assay: Time-kill study; assay type: cell-based
Protocol: Time-kill studies of Compound A versus E. coli ATCC25922, E. coli (lab strain) D31, and S. aureus ATCC27660 were determined in a standard protocol by measuring the time it takes to reduce the initial inoculums 3 log units. Three ml of cation-adjusted Mueller-Hinton medium was inoculated with 20 μL of frozen bacterial stock and incubated at 37° C. on a shaker platform (250 rpm) overnight. […] Compound A stock solution was prepared at 10 mg/mL in DMSO. Time points were collected and viable bacteria were counted on MH Agar plates after an 18 hour incubation. […] See, FIG. 1A and FIG. 1B.

[12] = tested on: MSSA ATCC 29213; assay: Serial passage resistance, MSSA; assay type: cell-based, S. aureus; conditions: 0.5×MIC, 17 passages
Protocol: (§3) Frozen bacterial stocks (20 μL) of S. aureus ATCC29213 or methicillin-resistant S. aureus (MRSA ATCC 33591) were inoculated into 3 mL cation-adjusted Mueller-Hinton medium and incubated at 37° C. on a shaker platform (250 rpm) overnight. The suspension was diluted to approximately 5×10^5 cfu/mL and inoculated into a polypropylene (Costar) 96-well round bottom plate (90 μL volumes). Compound stock solutions of Compound A and norfloxacin (Sigma Aldrich, St. Louis, Mo.; Catalogue# N9890) were prepared in DMSO and serial two-fold dilutions of compound were made in 0.01% acetic acid, 0.2% bovine serum albumin directly in the wells of the polypropylene plate at 10 μL/well. Final concentrations of Compound A were 50, 25, 12.5, 6.25, 3.13, 1.56, 0.78, 0.39, 0.19, 0.098, 0.049, and 0.024 μg/mL. Final concentration ranges of norfloxacin were 100, 50, 25, 12.5, 6.25, 3.13, 1.56, 0.78, 0.39, 0.19, 0.098, and 0.049 μg/mL. […] All samples were performed in triplicate. Following a 24 hour incubation at 37° C., cell growth was assessed by observing the presence of “acceptable growth”, defined by CLSI as a ≧2 mm button or definite turbidity. The MIC wells were defined as the lowest concentration where acceptable growth was not observed. For serial passage, 50 μL aliquots were taken from 2 of 3 replicate wells at 0.5×MIC and combined into 900 μL of fresh cation-adjusted Mueller-Hinton medium. The OD600 was measured and the cell suspensions were inoculated into polypropylene 96-well round bottom plates (90 μL volumes) at approximately 5×10^5 cfu/mL. Ten μL of compound stock solutions were added previously to the wells to achieve the concentration ranges for each compound described above. All samples were performed in triplicate. The plates were incubated for 24 hours at 37° C. This process was repeated for a total of 17 passages and MIC values were recorded at each passage.

[13] = tested on: MRSA ATCC 33591; assay: Serial passage resistance, MRSA; assay type: cell-based, S. aureus; conditions: 0.5×MIC, 17 passages
Protocol: as §3

[14] = In vitro metabolic stability, blood plasma; assay type: in vitro ADME; conditions: 5 μM, 37° C.
Protocol: (§4) Pooled plasma samples from human (mixed gender), rat (mixed breed and gender) and dog (mixed breed and gender) were incubated with Compound A (5 μM) at 37° C. for 0 and 60 minutes (duplicate samples). Incubations were terminated by addition of ice-cold precipitation solvent (acetonitrile:glacial acetic acid, 9:1 v/v). Supernatants were diluted with equal volume of 0.1% formic acid and analyzed by HPLC-MS/MS. Plasma stability is reported as % parent compound at 60 minutes relative to amount of parent at 0 minutes.

[15] = In vitro metabolic stability, blood plasma (data not shown); assay type: in vitro ADME
Protocol: as §4

[16] = tested on: MSSA 29213; assay: Mouse thigh burden model against MSSA 29213; assay type: in vivo
[17] = tested on: MRSA 33591; assay: Mouse thigh burden model against MRSA 33591; assay type: in vivo
[18] = in vivo; conditions: mouse, iv
Protocol: Maximum tolerated dose (MTD) determinations were made in ascending/descending dose studies in mice and rats. Compound A was administered by either i.v. bolus injection in the tail vein of mice and rats or by i.v. infusion via catheter in the femoral vein of rats. At each dose, two to three animals were administered compound and clinical signs were recorded over a 4 to 7 day period. Gross necropsy was performed at the conclusion of the study.

[19] = Stability in presence of plasma and isolated hepatocytes; conditions: multiple species

Compound: N=C(N)NCCCCC(=O)Nc1cc(C(F)(F)F)cc(NC(=O)c2cc(C(=O)Nc3cc(C(F)(F)F)cc(NC(=O)CCCCNC(=N)N)c3O[C@H]3CCNC3)ncn2)c1O[C@H]1CCNC1 [Compound A, pyrimidine-4,6-dicarboxylic acid bis-{[3-(5-guanidino-pentanoylamino)-2-((R)-pyrrolidin-3-yloxy)-5-trifluoromethyl-phenyl]-amide}tetrahydrochloride]
- MIC [1]: 4 µg/mL
- MIC [2]: 2 to 4 µg/mL
- MIC [3]: 1 to 2 µg/mL
- MIC [4]: 0.5 to 4 µg/mL
- MIC [5]: 1 to 2 µg/mL
- MIC [6]: 4 to 8 µg/mL
- MIC [7]: 2 to 8 µg/mL
- MIC [8]: 1 to 2 µg/mL
- MIC [9]: 16 to 64 µg/mL
- MIC range ([10]; DAP-NS OXA-R, 5 isolates): 0.5-2
- MIC range ([10]; Drug-suscept., 59 isolates): 0.25-1
- MIC range ([10]; LZD-NS OXA-R, 5 isolates): 0.5-1
- MIC range ([10]; OXA-R, 69 isolates): 0.25-2
- MIC90 ([10]; Staphylococcus aureus, screen of 150 Staphylococci organisms): 0.5 to 2 µg/mL
- MIC range ([10]; VRSA/VISA DAP-NS OXA-R, 3 isolates): 0.5-1
- MIC range ([10]; VRSA/VISA OXA-R, 7 isolates): 0.5-1
- time to reduction of 3 log10 units in the initial inoculum ([11]; 2×MIC): 5 hours
- MIC ([11]; Staphylococcus aureus, ATCC27660, MIC used in time-kill study): 1 µg/mL
- re-growth in the cultures ([11]; over 72 hours at 1×MIC): No re-growth
- change in MIC values on serial passage [12]: did not result in any change; also recorded: no change
- change in MIC values on serial passage [13]: did not result in any change; also recorded: no change
- Plasma Stability (%) ([14]; Dog (mixed breeds), 60 minutes): 100%
- Plasma Stability (%) ([14]; Human, parent at 60 minutes relative to 0 minutes): 96%
- Plasma Stability (%) ([14]; Rat (mixed breeds), 60 minutes): 102%
- loss of compound in plasma ([15]; cynomolgus monkeys): little to no loss
- loss of compound in plasma ([15]; rabbits): little to no loss
- efficacy in vivo [16]: efficacious
- efficacy in vivo [17]: efficacious
- MTD [18]: 30 mg/kg
- stability in the presence of plasma and isolated hepatocytes [19]: stable
